According to PubChem BioAssay (NCI):
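Tested at 5 concentrations; 48 h exposure; 96-well plates; endpoints linearly interpolated, else capped at highest concentration. GI50: concentration for 50% inhibition of growth. Definition used: TGI = concentration required for complete inhibition of growth.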

Assays:
Assay in all cases: NCI-60 cell line screen, 48 h
786-0 renal = test system: 786-0 renal
A498 renal = test system: A498 renal
A549 NSCLC = test system: A549 NSCLC
ACHN renal = test system: ACHN renal
BT-549 breast = test system: BT-549 breast
CAKI-1 renal = test system: CAKI-1 renal
CCRF-CEM leukemia = test system: CCRF-CEM leukemia
COLO 205 colon = test system: COLO 205 colon
DU-145 prostate = test system: DU-145 prostate
EKVX NSCLC = test system: EKVX NSCLC
HCC-2998 colon = test system: HCC-2998 colon
HCT-116 colon = test system: HCT-116 colon
HCT-15 colon = test system: HCT-15 colon
HL-60(TB) leukemia = test system: HL-60(TB) leukemia
HOP-62 NSCLC = test system: HOP-62 NSCLC
HOP-92 NSCLC = test system: HOP-92 NSCLC
HS 578T breast = test system: HS 578T breast
HT29 colon = test system: HT29 colon
IGROV1 ovarian = test system: IGROV1 ovarian
K-562 leukemia = test system: K-562 leukemia
KM12 colon = test system: KM12 colon
LOX IMVI melanoma = test system: LOX IMVI melanoma
M14 melanoma = test system: M14 melanoma
MALME-3M melanoma = test system: MALME-3M melanoma
MCF7 breast = test system: MCF7 breast
MDA-MB-231 breast = test system: MDA-MB-231 breast
MDA-MB-435 = test system: MDA-MB-435
MOLT-4 leukemia = test system: MOLT-4 leukemia
NCI-H226 lung = test system: NCI-H226 lung
NCI-H23 lung = test system: NCI-H23 lung
NCI-H460 lung = test system: NCI-H460 lung
NCI-H522 lung = test system: NCI-H522 lung
NCI/ADR-RES ovarian = test system: NCI/ADR-RES ovarian
OVCAR-3 ovarian = test system: OVCAR-3 ovarian
OVCAR-4 ovarian = test system: OVCAR-4 ovarian
OVCAR-5 ovarian = test system: OVCAR-5 ovarian
OVCAR-8 ovarian = test system: OVCAR-8 ovarian
PC-3 prostate = test system: PC-3 prostate
RPMI-8226 leukemia = test system: RPMI-8226 leukemia
RXF 393 renal = test system: RXF 393 renal
SF-268 CNS = test system: SF-268 CNS
SF-295 CNS = test system: SF-295 CNS
SF-539 CNS = test system: SF-539 CNS
SK-MEL-2 melanoma = test system: SK-MEL-2 melanoma
SK-MEL-28 melanoma = test system: SK-MEL-28 melanoma
SK-MEL-5 melanoma = test system: SK-MEL-5 melanoma
SK-OV-3 ovarian = test system: SK-OV-3 ovarian
SN12C renal = test system: SN12C renal
SNB-19 CNS = test system: SNB-19 CNS
SNB-75 CNS = test system: SNB-75 CNS
SR leukemia = test system: SR leukemia
SW-620 colon = test system: SW-620 colon
T-47D breast = test system: T-47D breast
TK-10 renal = test system: TK-10 renal
U251 CNS = test system: U251 CNS
UACC-257 melanoma = test system: UACC-257 melanoma
UACC-62 melanoma = test system: UACC-62 melanoma
UO-31 renal = test system: UO-31 renal

COC(=O)C1=Nc2ccc(F)cc2/C1=C/c1sc(=S)[nH]c1O
GI50 (786-0 renal): 122 nM | TGI (786-0 renal): 15100 nM | GI50 (A498 renal): 202 nM | TGI (A498 renal): 942 nM | GI50 (A549 NSCLC): 254 nM | TGI (A549 NSCLC): > 100000 nM | GI50 (ACHN renal): 69.7 nM | TGI (ACHN renal): 18000 nM | GI50 (BT-549 breast): 161 nM | TGI (BT-549 breast): 3310 nM | GI50 (CAKI-1 renal): 97 nM | TGI (CAKI-1 renal): 7000 nM | GI50 (CCRF-CEM leukemia): 133 nM | TGI (CCRF-CEM leukemia): > 100000 nM | GI50 (COLO 205 colon): 311 nM | TGI (COLO 205 colon): 1240 nM | GI50 (DU-145 prostate): 222 nM | TGI (DU-145 prostate): > 36200 nM | GI50 (EKVX NSCLC): 987 nM | TGI (EKVX NSCLC): > 100000 nM | GI50 (HCC-2998 colon): 410 nM | TGI (HCC-2998 colon): 12100 nM | GI50 (HCT-116 colon): 46.8 nM | TGI (HCT-116 colon): 16700 nM | GI50 (HCT-15 colon): 66.3 nM | TGI (HCT-15 colon): > 100000 nM | GI50 (HL-60(TB) leukemia): 263 nM | GI50 (HOP-62 NSCLC): 180 nM | TGI (HOP-62 NSCLC): 18700 nM | GI50 (HOP-92 NSCLC): 1190 nM | TGI (HOP-92 NSCLC): 14400 nM | GI50 (HS 578T breast): 51.8 nM | TGI (HS 578T breast): 21600 nM | GI50 (HT29 colon): 559 nM | TGI (HT29 colon): 11900 nM | GI50 (IGROV1 ovarian): 275 nM | TGI (IGROV1 ovarian): 14900 nM | GI50 (K-562 leukemia): 45 nM | TGI (K-562 leukemia): > 100000 nM | GI50 (KM12 colon): 73.4 nM | TGI (KM12 colon): 10700 nM | GI50 (LOX IMVI melanoma): 94.3 nM | TGI (LOX IMVI melanoma): > 32600 nM | GI50 (M14 melanoma): 54.3 nM | TGI (M14 melanoma): > 100000 nM | GI50 (MALME-3M melanoma): 191 nM | TGI (MALME-3M melanoma): 29000 nM | GI50 (MCF7 breast): 260 nM | TGI (MCF7 breast): 15000 nM | GI50 (MDA-MB-231 breast): 358 nM | TGI (MDA-MB-231 breast): 4260 nM | GI50 (MDA-MB-435): 23.3 nM | TGI (MDA-MB-435): 60.5 nM | GI50 (MOLT-4 leukemia): 236 nM | TGI (MOLT-4 leukemia): > 100000 nM | GI50 (NCI-H226 lung): 959 nM | TGI (NCI-H226 lung): 10300 nM | GI50 (NCI-H23 lung): 408 nM | TGI (NCI-H23 lung): > 100000 nM | GI50 (NCI-H460 lung): 80.4 nM | TGI (NCI-H460 lung): 10100 nM | GI50 (NCI-H522 lung): 36.3 nM | TGI (NCI-H522 lung): 1090 nM | GI50 (NCI/ADR-RES ovarian): 70.4 nM | TGI (NCI/ADR-RES ovarian): 11500 nM | GI50 (OVCAR-3 ovarian): 44.1 nM | TGI (OVCAR-3 ovarian): 3660 nM | GI50 (OVCAR-4 ovarian): 692 nM | TGI (OVCAR-4 ovarian): 23800 nM | GI50 (OVCAR-5 ovarian): 910 nM | TGI (OVCAR-5 ovarian): > 100000 nM | GI50 (OVCAR-8 ovarian): 202 nM | TGI (OVCAR-8 ovarian): 37700 nM | GI50 (PC-3 prostate): 128 nM | TGI (PC-3 prostate): 26300 nM | GI50 (RPMI-8226 leukemia): 305 nM | TGI (RPMI-8226 leukemia): 3920 nM | GI50 (RXF 393 renal): 76.2 nM | TGI (RXF 393 renal): 4100 nM | GI50 (SF-268 CNS): 575 nM | TGI (SF-268 CNS): 29900 nM | GI50 (SF-295 CNS): 125 nM | TGI (SF-295 CNS): 13200 nM | GI50 (SF-539 CNS): 74.3 nM | TGI (SF-539 CNS): 751 nM | GI50 (SK-MEL-2 melanoma): 806 nM | TGI (SK-MEL-2 melanoma): 41000 nM | GI50 (SK-MEL-28 melanoma): 1060 nM | TGI (SK-MEL-28 melanoma): > 83500 nM | GI50 (SK-MEL-5 melanoma): 131 nM | TGI (SK-MEL-5 melanoma): 745 nM | GI50 (SK-OV-3 ovarian): 513 nM | TGI (SK-OV-3 ovarian): 31300 nM | GI50 (SN12C renal): 354 nM | TGI (SN12C renal): > 26300 nM | GI50 (SNB-19 CNS): 179 nM | TGI (SNB-19 CNS): > 52900 nM | GI50 (SNB-75 CNS): 30.1 nM | TGI (SNB-75 CNS): 11800 nM | GI50 (SR leukemia): 47.6 nM | TGI (SR leukemia): > 100000 nM | GI50 (SW-620 colon): 49.9 nM | TGI (SW-620 colon): > 100000 nM | GI50 (T-47D breast): 4410 nM | TGI (T-47D breast): > 100000 nM | GI50 (TK-10 renal): 848 nM | TGI (TK-10 renal): 19300 nM | GI50 (U251 CNS): 83.8 nM | TGI (U251 CNS): 14200 nM | GI50 (UACC-257 melanoma): 6130 nM | TGI (UACC-257 melanoma): > 100000 nM | GI50 (UACC-62 melanoma): 248 nM | TGI (UACC-62 melanoma): > 47000 nM | GI50 (UO-31 renal): 457 nM | TGI (UO-31 renal): 5140 nM
